Laboratory results taken from patent publication US20040215284A1, “Treatment of neuromuscular dysfunction of the lower urinary tract with selective mGlu5 antagonists” (Recordati S.A., priority 2003, published 2004).
Like-named read-outs stand apart in the source and are kept apart here.

What was measured:
[1] = tested on: Group II (mGlu2 + mGlu3) receptors; assay: Radioligand binding assay at Group II (mGlu2+mGlu3), [3H]LY341495, rat forebrain membranes; conditions: for Ki: [3H]LY341495
Description: (§1) Male Sprague Dawley rats (200-300 g, Charles River, Italy) were killed by cervical dislocation and the forebrain (cortex, striatum and hippocampus) and cerebellum were homogenized (2×20 sec) in 50 vols of cold 50 mM Tris buffer pH 7.4, using a Politron homogenizer (Kinematica). […] The final pellets were frozen and stored at −80° C. until use.
iii) Group II (mGlu2+mGlu3): On experimental section pellets from rat forebrain were resuspended in 250 vols of 20 mM HEPES, 2 mM MgCl2, 2 mM CaCl2, pH 7.4. The membranes were incubated in a final volume of 1 ml for 30 min at 0° C. with 1 nM [^3H]LY341495 in the absence or presence of competing drugs.
(§2) The filters were then washed with cold buffer and the radioactivity retained on the filters was counted by liquid scintillation spectrometry.
(§3) Data were expressed as the mean of pKi(−log Ki)±SE.

[2] = tested on: rhythmic bladder-voiding contractions in anaesthetised rats; assay: Rhythmic bladder-voiding contractions induced by bladder filling in anaesthetised rats; type: in vivo, rat; conditions: for BLADDER CONTRACTIONS quiescence time: mean ± SEM; for ED10min (extrapolated dose inducing 10 min of bladder quiescence): linear regression
Description: The animals were housed with free access to food and water and maintained on a forced 12-hour alternating light-dark cycle at 22-24° C. for at least one week, except during the experiment. […] The catheter was tied in place with a ligature around the external urethral orifice and was connected to conventional pressure transducers (Statham P23 ID/P23 XL). […] The bladder was then filled via the recording catheter by incremental volumes of warm (37° C.) saline until reflex bladder-voiding contractions occurred (usually 0.8-1.5 ml). For intravenous injection of bioactive compounds, PE 50 polyethylene tubing filled with physiological saline was inserted into the jugular vein.
From the cystometrogram, the number of contractions recorded 15 minutes before (basal values) and after treatment, as well as the mean amplitude of these contractions (mean height of the peaks in mmHg), were evaluated.
Morphine was tested, too, as a reference standard for this model.

[3] = biological target: T1, mGlu1 (Rattus norvegicus, UniProt P23385); assay: Radioligand binding assay at mGlu1, [3H]quisqualic acid, rat cerebellum membranes; conditions: for Ki: [3H]quisqualic acid
T1 construct: pellets from rat cerebellum were resuspended; from tissue; host or cells: rat cerebellum membranes (male Sprague Dawley)
Description: as §1
i) mGlu1: On experimental section pellets from rat cerebellum were resuspended in 150-200 vols of 20 mM N-2-hydroxyethylpiperazine-N′-2-ethanesulfonic acid (HEPES), 2 mM MgCl2, 2 mM CaCl2, pH 7.4.
as §2, §3

[4] = biological target: T2, mGlu5 (Rattus norvegicus, UniProt P31424); conditions: rat forebrain; for Ki: read-out: mGlu5 Ki, [3H]MPEP
Description: as §1
(§4) ii) mGlu5: On experimental section pellets from rat forebrain were resuspended in 100 vols of 20 mM HEPES, 2 mM MgCl2, 2 mM CaCl2, pH 7.4.
as §2, §3

[5] = biological target: mGlu1a (Homo sapiens, UniProt Q13255); conditions: literature, functional models; cited from earlier work
[6] = biological target: mGlu5a (Homo sapiens, UniProt P41594); conditions: literature, functional models; cited from earlier work
[7] = biological target: mGlu2 (Homo sapiens, UniProt Q14416); conditions: cited from earlier work; for IC50: literature, functional models
[8] = biological target: mGlu4a (Homo sapiens, UniProt Q14833); conditions: literature, functional models; cited from earlier work
[9] = tested on: conscious rats; assay: Cystometric parameters in conscious rats (bladder infused with saline); type: in vivo, rat
Description: Male Sprague-Dawley rats [Crl: CD® (SD) IGS BR] of 300-400 g b.w. supplied by Charles River Italia were used. The animals were housed with free access to food and water and maintained on a forced 12-hour-light/12-hour-dark cycle at 22-24° C. of temperature, except during the experiment. To quantify urodynamic parameters in conscious rats, cystometrographic studies were performed according to the procedure previously reported (Guarneri et al., Pharmacol. Res. 24: 75, 1991).
Briefly, the rats were anaesthetized by intraperitoneal administration of 3 ml/kg of Equithensin solution (pentobarbital 30 mg/kg and chloral hydrate 125 mg/kg) and placed in a supine position. An approximately 10 mm long midline incision was made in the shaved and cleaned abdominal wall. The urinary bladder was gently freed from adhering tissues, emptied and then cannulated via an incision in the bladder body, using a polyethylene cannula (0.58 mm internal diameter, 0.96 mm external diameter) which was permanently sutured with silk thread. For intravenous bolus injection, a similar polyethylene tubing filled with physiological saline containing sodium heparin (40 I.U./ml) was inserted into the jugular vein. The cannulae were exteriorized through a subcutaneous tunnel in the retroscapular area, where they were connected to a plastic adapter in order to avoid the risk of removal by the animal. For drug testing, the rats were utilized one day after implantation.
On the day of the experiment, the rats were placed in modified Bollman cages, i.e., restraining cages that were large enough to permit the rats to adopt a normal crouched posture, but narrow enough to prevent turning around. After a stabilization period of about 20 minutes, the free tip of the bladder cannula was connected through a T-shaped tube to a pressure transducer (Statham P23XL) and to a peristaltic pump (Gilson minipuls 2) for continuous infusion of a warm (37° C.) saline solution into the urinary bladder, at a constant rate of 0.1 ml/minute. The intraluminal-pressure signal during infusion of saline into the bladder was continuously recorded on a polygraph (Rectigraph-8K San-ei with BM614/2 amplifier from Biomedica Mangoni) and, from the cystometrogram, two urodynamic parameters were evaluated: bladder volume capacity (BVC) and micturition pressure (MP). BVC (in ml) is defined as the volume of saline infused into the bladder necessary to induce detrusor contraction followed by micturition. MP (in mmHg) is defined as the maximal intravesical pressure caused by contraction during micturition. Basal BVC and MP values were evaluated as the mean of the values observed in the cystometrograms recorded in an initial period of 30-60 minutes. At this point in the assay, the infusion was interrupted and the test compounds were administered either intravenously by the jugular catheter or orally by a stomach tube. The bladder infusion restarted and changes in BVC and MP were evaluated from the mean values obtained in the cystometrograms observed during 1, 2, 3, 4, and 5 hours after treatment. The compounds were administered in a volume of 1 ml/kg and 2 ml/kg for intravenous and oral administration routes, respectively. Groups of control animals received the same amount of vehicle corresponding to a solution of 8% dimethylformamide and 8% Tween 80 in water (final concentrations) for intravenous, or a solution of 0.5% methocel in water for oral route.
Under the given test conditions, measurement of BVC is equivalent to measurement of interval time between micturitions.
All data were expressed as mean±standard error. The percent changes of BVC and MP relative to the basal values, as well as Δ values (difference in ml or in mmHg) of BVC and MP (BVC or MP at time “x” minus basal value), were also evaluated for each rat/time. In the figures, data were reported as percentage changes relative to basal values. […]

[10] = tested on: conscious rats with bladder infused with dilute acetic acid; assay: Cystometric parameters in conscious rats with bladder infused with dilute acetic acid; type: in vivo, rat; conditions: 10 mg/kg oral, bladder infused with 0.2% acetic acid
Description: The method used was that described in Example 4. The basal BVC and MP values were evaluated as the mean of the values observed in the cystometrograms recorded over an initial period of 30-60 minutes. At this point in the test, the infusion was stopped and the test compounds were administered orally via gastric intubation. Infusion into the bladder was resumed, replacing the warm saline solution with dilute acetic acid (0.2%) and the variations in BVC and MP recorded were evaluated as mean values obtained in the cystometrograms 1, 2, 3 and 4 hours after the treatment, relative to the basal values. The compounds were administered in a volume of 2 ml/kg and the groups of control animals received the same amount of vehicle (0.5% Methocel in water) orally.
The statistical analysis of the data was performed as reported in Example 4.

[11] = biological target: mGlu6 (Homo sapiens, UniProt O15303); conditions: literature, functional models; cited from earlier work
[12] = biological target: mGlu7 (Homo sapiens, UniProt Q14831); conditions: literature, functional models; cited from earlier work
[13] = biological target: mGlu8 (Homo sapiens, UniProt O00222); conditions: literature, functional models; cited from earlier work
[14] = biological target: T2, mGlu5; assay: biochemical
Description: as §1, §4, §2, §3

[15] = i.v., MPEP 3 and 10 mg/kg, SIB 1893 50 mg/kg, FIG. 2

Sequence of mGlu5a (P41594 21-1180 isoform P41594-2 limits assumed): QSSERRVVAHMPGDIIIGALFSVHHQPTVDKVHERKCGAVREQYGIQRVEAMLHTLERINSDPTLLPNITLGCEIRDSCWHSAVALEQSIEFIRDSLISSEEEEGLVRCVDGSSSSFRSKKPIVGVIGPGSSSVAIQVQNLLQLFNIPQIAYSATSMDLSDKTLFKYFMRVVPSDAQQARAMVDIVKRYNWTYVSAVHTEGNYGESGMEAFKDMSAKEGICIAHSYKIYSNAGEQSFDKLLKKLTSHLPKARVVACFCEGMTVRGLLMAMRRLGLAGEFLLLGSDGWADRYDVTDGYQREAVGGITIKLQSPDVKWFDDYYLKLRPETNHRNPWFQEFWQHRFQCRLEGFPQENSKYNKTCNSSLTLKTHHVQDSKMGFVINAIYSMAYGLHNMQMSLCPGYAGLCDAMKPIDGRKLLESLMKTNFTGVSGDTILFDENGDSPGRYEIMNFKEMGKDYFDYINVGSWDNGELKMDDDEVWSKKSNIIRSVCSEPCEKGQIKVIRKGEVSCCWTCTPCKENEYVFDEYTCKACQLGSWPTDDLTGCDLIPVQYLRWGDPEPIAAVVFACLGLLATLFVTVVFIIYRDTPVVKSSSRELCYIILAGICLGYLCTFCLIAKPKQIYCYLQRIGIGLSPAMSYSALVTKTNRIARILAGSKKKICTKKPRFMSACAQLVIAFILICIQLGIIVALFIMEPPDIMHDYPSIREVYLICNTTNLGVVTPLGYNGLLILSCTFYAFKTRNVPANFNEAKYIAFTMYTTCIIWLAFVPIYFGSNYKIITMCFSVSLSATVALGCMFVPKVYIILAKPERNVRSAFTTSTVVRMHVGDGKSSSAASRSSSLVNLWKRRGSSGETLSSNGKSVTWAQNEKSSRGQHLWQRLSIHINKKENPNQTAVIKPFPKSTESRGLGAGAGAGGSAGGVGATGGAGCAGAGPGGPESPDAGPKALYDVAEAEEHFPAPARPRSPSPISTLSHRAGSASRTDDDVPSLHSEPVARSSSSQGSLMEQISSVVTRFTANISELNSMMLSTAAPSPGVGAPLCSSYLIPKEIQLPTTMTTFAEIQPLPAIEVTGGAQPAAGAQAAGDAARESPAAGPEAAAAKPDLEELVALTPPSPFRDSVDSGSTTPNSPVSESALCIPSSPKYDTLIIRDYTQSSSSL
Sequence of mGlu4a (Q14833 33-912): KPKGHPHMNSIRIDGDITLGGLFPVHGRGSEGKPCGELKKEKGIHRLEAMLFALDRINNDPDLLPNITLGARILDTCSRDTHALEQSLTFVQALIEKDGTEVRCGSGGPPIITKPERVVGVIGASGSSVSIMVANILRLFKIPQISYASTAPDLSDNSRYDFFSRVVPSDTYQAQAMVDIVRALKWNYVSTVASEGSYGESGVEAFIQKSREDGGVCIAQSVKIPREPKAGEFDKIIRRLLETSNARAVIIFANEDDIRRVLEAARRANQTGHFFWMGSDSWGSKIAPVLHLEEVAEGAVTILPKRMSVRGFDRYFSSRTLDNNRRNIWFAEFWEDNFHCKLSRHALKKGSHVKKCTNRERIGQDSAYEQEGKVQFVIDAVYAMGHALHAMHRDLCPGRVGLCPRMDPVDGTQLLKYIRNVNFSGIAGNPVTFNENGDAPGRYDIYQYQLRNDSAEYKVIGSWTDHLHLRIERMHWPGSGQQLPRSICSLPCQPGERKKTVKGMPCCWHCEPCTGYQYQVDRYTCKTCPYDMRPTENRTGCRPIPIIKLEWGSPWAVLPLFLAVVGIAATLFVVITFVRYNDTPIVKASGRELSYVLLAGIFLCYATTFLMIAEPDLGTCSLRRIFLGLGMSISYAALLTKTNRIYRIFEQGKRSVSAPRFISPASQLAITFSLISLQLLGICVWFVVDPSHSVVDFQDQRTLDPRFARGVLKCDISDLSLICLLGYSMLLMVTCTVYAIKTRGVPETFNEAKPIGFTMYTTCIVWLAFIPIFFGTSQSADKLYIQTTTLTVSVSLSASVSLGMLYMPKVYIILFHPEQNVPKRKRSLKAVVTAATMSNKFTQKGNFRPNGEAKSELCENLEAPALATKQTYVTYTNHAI
Sequence of mGlu2 (Q14416 19-872): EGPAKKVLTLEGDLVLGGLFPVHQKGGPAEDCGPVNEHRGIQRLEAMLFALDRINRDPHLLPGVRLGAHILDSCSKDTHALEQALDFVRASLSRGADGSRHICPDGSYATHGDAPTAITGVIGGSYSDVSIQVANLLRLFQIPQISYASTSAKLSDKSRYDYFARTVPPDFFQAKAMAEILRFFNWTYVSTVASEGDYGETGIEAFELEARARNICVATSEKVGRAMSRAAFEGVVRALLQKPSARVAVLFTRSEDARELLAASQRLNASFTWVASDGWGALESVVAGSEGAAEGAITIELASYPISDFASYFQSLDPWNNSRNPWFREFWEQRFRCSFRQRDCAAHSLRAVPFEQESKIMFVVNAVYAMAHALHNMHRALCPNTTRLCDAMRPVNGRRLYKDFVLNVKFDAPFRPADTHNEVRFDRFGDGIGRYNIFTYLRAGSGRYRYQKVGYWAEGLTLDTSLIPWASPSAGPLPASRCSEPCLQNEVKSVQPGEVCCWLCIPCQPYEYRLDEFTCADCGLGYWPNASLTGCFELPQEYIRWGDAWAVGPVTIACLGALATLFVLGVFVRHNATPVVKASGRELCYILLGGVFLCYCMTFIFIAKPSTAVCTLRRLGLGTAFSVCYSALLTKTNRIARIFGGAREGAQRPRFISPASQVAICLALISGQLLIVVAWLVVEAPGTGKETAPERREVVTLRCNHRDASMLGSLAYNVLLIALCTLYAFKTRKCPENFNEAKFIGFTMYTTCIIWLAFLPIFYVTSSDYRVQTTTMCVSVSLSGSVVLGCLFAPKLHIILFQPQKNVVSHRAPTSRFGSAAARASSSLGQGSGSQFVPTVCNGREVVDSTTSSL
T1 sequence (P23385 19-1199): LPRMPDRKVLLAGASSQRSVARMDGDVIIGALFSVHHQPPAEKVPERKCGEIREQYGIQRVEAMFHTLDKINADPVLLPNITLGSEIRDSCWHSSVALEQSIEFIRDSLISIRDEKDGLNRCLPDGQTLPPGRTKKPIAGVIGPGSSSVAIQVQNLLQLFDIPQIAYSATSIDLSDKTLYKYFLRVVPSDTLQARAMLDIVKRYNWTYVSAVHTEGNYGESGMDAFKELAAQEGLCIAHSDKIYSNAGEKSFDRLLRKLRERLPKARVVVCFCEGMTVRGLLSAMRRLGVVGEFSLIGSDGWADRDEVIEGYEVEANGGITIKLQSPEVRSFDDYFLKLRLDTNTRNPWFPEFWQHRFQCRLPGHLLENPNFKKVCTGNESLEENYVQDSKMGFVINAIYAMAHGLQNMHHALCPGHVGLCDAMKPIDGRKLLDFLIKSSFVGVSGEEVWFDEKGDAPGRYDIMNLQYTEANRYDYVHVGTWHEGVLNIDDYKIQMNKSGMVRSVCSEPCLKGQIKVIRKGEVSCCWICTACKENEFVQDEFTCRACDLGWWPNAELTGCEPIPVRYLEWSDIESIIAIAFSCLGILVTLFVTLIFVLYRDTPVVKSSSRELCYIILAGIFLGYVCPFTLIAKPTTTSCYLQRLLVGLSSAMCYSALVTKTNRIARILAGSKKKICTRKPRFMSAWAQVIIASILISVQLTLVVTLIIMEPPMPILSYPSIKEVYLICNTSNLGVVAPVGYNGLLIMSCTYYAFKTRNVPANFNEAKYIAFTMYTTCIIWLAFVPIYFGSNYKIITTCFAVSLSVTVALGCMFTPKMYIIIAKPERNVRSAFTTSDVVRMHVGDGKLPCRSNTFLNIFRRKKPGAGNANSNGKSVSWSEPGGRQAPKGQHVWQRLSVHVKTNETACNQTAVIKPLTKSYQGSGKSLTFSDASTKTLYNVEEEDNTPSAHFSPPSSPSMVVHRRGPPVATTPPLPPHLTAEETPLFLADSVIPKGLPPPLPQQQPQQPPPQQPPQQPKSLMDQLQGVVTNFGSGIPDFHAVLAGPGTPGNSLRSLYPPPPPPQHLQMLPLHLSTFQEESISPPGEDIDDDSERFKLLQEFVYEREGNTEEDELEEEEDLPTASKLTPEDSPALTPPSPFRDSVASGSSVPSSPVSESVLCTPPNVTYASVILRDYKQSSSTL
Sequence of mGlu8 (O00222 34-908): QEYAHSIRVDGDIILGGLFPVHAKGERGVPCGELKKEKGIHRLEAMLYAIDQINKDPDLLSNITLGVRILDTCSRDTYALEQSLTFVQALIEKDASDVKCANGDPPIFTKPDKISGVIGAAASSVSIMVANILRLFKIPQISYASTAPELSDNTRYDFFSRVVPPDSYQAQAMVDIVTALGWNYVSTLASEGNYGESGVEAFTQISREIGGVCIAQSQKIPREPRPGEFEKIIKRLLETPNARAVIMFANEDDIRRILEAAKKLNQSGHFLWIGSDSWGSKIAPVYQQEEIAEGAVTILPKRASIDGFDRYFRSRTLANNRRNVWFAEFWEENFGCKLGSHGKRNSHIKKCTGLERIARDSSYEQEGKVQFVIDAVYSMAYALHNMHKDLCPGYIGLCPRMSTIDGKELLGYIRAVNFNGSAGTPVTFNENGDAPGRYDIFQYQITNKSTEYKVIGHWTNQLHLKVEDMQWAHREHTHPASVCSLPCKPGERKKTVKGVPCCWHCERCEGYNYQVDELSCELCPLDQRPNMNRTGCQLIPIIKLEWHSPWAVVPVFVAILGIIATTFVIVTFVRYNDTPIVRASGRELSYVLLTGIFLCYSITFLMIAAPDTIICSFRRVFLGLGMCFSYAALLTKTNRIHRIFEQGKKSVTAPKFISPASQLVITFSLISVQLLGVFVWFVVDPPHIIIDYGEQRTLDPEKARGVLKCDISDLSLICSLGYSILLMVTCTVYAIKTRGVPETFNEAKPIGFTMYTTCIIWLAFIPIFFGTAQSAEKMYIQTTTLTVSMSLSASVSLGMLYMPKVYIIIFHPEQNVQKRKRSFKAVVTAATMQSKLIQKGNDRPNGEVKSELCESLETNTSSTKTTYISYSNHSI

Row | Structure (SMILES) | Ki ([1]; rat forebrain) | BLADDER CONTRACTIONS quiescence time ([2]; 100 μg/kg i.v.) | BLADDER CONTRACTIONS quiescence time ([2]; 300 μg/kg i.v.) | BLADDER CONTRACTIONS quiescence time ([2]; 1000 μg/kg i.v.) | activity as inhibitors of isovolumic voiding contractions (in words) ([2]; i.v., anaesthetised rats) | ED10min (extrapolated dose inducing 10 min of bladder quiescence) ([2]; i.v.) | Ki [3] | BLADDER CONTRACTIONS quiescence time ([2]; 3000 μg/kg i.v.) | IC50 [5] | IC50 [6] | IC50 [8] | BLADDER CONTRACTIONS quiescence time ([2]; 30 μg/kg i.v.) | inhibition of the specific binding of [3H]MPEP to mGlu5 receptor (in words) [4] | other results
1 | N[C@](CC1c2ccccc2Oc2ccccc21)(C(=O)O)[C@H]1C[C@@H]1C(=O)O [LY 341495] | 0.004 µM | 2.45 ± 1.39 min | 4.48 ± 1.31 min | 4.65 ± 2.11 min | inactive | >1 mg/kg |  |  |  |  |  |  |  | displacement of specific binding of [3H]LY341495 to Group II receptors (in words) ([1]; rat forebrain): displaced with high affinity
2 | Cc1cc(C(=O)O)ccc1[C@H](N)C(=O)O [LY 367385] | > 1 µM |  |  |  | inactive | >10 mg/kg | 6 µM | 1.00 ± 0.29 min | 8.8 µM | > 100 µM |  |  |  | displacement of [3H]quisqualic acid from its binding sites (in words) [3]: significantly displaced; BLADDER CONTRACTIONS quiescence time ([2]; 10000 μg/kg i.v.): 1.95 ± 0.30 min; Ki [4]: > 10 µM
3 | NC1(C(=O)O)CCc2cc(C(=O)O)ccc21 (stereo not shown) [AIDA] | > 10 µM |  |  | 1.50 ± 0.54 min | inactive | >10 mg/kg | > 10 µM | 2.33 ± 1.44 min |  | > 1000 µM | > 1000 µM |  |  | BLADDER CONTRACTIONS quiescence time ([2]; 10000 μg/kg i.v.): 2.35 ± 0.50 min; Ki [4]: > 10 µM; mGlu2 activity (in words) ([7]; literature (Moroni et al. 1997)): Weak
4 | N[C@](CC1c2ccccc2Oc2ccccc21)(C(=O)O)[C@H]1C[C@@H]1C(=O)O [[^3H]LY341495] |  |  |  |  |  |  |  |  |  |  |  |  |  | Kd ([1]; rat forebrain membranes, saturable binding, read-out: Kd of radioligand binding to mGlu2+mGlu3 subtypes): 0.0025 µM
5 | Cc1nc(C#Cc2cccnc2)cs1 [MTEP, 3-(2-methylthiazol-4-yl)ethynylpyridine] |  | 8.73 ± 2.11 min | 13.90 ± 2.10 min | 20.96 ± 4.66 min | active | 0.106 mg/kg |  |  |  |  |  | 5.52 ± 1.09 min | most potent inhibitors | 
6 | Cc1cccc(C#Cc2ccccc2)n1 [MPEP, 2-methyl-6-(phenylethynyl)pyridine] | > 1 µM | 7.09 ± 1.04 min | 12.64 ± 1.72 min | 22.46 ± 5.35 min | active | 0.15 mg/kg | > 10 µM |  | > 100 µM |  | > 100 µM | 3.90 ± 1.37 min | most potent inhibitors | bladder volume capacity (BVC) ([9]; 10 mg/kg i.v., vs basal values and vs control group, FIG. 1): significant increases in BVC; bladder volume capacity (BVC) ([9]; 3 and 10 mg/kg i.v., FIG. 1): effective in increasing the bladder volume capacity; micturition pressure (MP) [9, 15]: only mild effects on the micturition pressure; bladder volume capacity (BVC) ([9]; oral, 3-10 and 30 mg/kg, effect at 10 mg/kg or higher, FIG. 3): significant and dose-dependent increases in the BVC; micturition pressure (MP) ([9]; oral, 10 and 30 mg/kg, vs control group, FIG. 4): significantly reduced the MP; bladder volume capacity (BVC) ([10]; FIG. 5): effective in antagonizing the reduction of the bladder volume capacity; micturition pressure (MP) ([10]; FIG. 6): no effect on the micturition pressure; IC50 [7]: > 100 µM; IC50 [11]: > 100 µM; IC50 [12]: > 100 µM; IC50 [13]: > 100 µM
7 | CN1CC[C@]23c4c5ccc(O)c4O[C@H]2[C@@H](O)C=C[C@H]3[C@H]1C5 [Morphine] |  | 13.83 ± 2.40 min | 18.17 ± 3.60 min |  |  | 0.05 mg/kg |  |  |  |  |  | 6.89 ± 2.11 min |  | BLADDER CONTRACTIONS quiescence time ([2]; 10 μg/kg i.v.): 2.76 ± 0.93 min
8 | Cc1cccc(C=Cc2ccccc2)n1 [SIB 1893, 2-methyl-6-(2-phenylethenyl)pyridine] | > 10 µM |  |  | 4.44 ± 1.05 min | active | 1.928 mg/kg | > 10 µM | 15.57 ± 1.34 min | > 30 µM | 0.3 µM | > 30 µM |  | weaker affinity | BLADDER CONTRACTIONS quiescence time ([2]; 2000 μg/kg i.v.): 8.00 ± 0.78 min; amplitude of contractions when contractions resumed, relative to before treatment (in words) ([2]; i.v., anaesthetised rats): no difference in the amplitude; bladder volume capacity (BVC) ([9]; 50 mg/kg i.v., FIG. 1): significantly increased the BVC only in comparison with the basal values; micturition pressure (MP) [9, 15]: only mild effects on the micturition pressure; IC50 [7]: > 30 µM; IC50 [11]: > 30 µM; IC50 [12]: > 30 µM; IC50 [13]: > 30 µM; Ki [14]: 0.859 µM
